Measurements from patent publication US20260085053A1, “BENZOFURAN DERIVATIVES AS SIK INHIBITORS AND THE USE THEREOF” (BEONE MEDICINES I GMBH, priority 2023, published 2026).

How the values were obtained:
[1] = target: T1, SIK1 kinase (aa1-303, Thermo Fisher) (Homo sapiens, UniProt P57059); assay: Biochemical activities determination for SIK1 protein (TR-FRET); conditions: 110 uM ATP, 0.5 μM STK1 substrate
T1 construct: SIK1 kinase (aa1-303, Thermo Fisher); purchased Thermo Fisher
In short: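 TR-FRET kinase assay with SIK1 (aa1-303), 110 uM ATP, 0.5 μM STK1 substrate and 0-10 μM compound in Tris pH 7.5 with MgCl2, EGTA, DTT, Triton X-100. Enzyme preincubated with compound 60 min, reaction 180 min at room temperature; 665/620 nm ratio after overnight detection; IC50 from four-parameter logistic fit.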

[2] = target: T2, SIK2 kinase (full length, Thermo Fisher) (Homo sapiens, UniProt Q9H0K1); assay: Biochemical activities determination for SIK2 protein (TR-FRET); conditions: 80 uM ATP, 0.5 μM substrate
T2 construct: SIK2 kinase (full length, Thermo Fisher); purchased Thermo Fisher
In short: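 Full-length SIK2 preincubated 60 min with 0–10 μM compound, then reacted 180 min at room temperature with 80 uM ATP and 0.5 μM biotinylated substrate (pH 7.5 Tris/MgCl2 buffer). Phosphorylation detected by TR-FRET (665/620 nm ratio, cryptate antibody/streptavidin-XL665) after overnight incubation; IC50 from four-parameter logistic fit.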

[3] = target: T3, SIK3 kinase (aa59-365, Thermo Fisher) (Homo sapiens, UniProt Q9Y2K2); assay: Biochemical activities determination for SIK3 protein (TR-FRET); conditions: 125 uM ATP, 0.5 μM STK1 substrate
T3 construct: SIK3 kinase (aa59-365, Thermo Fisher); purchased Thermo Fisher
In short: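 SIK3 (aa59-365) was preincubated with compound (0-10 μM) for 60 min at room temperature in Tris buffer pH 7.5. The reaction was then started with 125 uM ATP and 0.5 μM STK1 substrate and run 180 min at room temperature. Phospho-substrate was detected by HTRF (665/620 nm ratio), and IC50 came from a four-parameter logistic fit.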

T1 sequence (P57059 1-303): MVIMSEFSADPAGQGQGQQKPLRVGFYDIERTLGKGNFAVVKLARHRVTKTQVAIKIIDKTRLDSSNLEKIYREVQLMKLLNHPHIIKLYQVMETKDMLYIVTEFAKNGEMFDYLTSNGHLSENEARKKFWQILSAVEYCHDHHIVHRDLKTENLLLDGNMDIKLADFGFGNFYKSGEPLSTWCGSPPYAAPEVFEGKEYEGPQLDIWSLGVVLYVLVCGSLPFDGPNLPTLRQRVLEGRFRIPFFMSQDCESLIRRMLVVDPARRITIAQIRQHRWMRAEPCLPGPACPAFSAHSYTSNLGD
T3 sequence (Q9Y2K2 59-365): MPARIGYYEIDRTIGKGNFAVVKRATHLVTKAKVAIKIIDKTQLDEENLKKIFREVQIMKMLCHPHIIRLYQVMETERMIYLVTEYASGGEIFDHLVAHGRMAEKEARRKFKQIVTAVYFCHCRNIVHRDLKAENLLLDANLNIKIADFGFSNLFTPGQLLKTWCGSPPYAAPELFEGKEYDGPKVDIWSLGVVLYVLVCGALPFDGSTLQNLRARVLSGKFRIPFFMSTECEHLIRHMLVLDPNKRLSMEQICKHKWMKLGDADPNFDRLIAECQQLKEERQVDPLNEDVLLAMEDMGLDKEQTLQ
T2 sequence (Q9H0K1 whole entry): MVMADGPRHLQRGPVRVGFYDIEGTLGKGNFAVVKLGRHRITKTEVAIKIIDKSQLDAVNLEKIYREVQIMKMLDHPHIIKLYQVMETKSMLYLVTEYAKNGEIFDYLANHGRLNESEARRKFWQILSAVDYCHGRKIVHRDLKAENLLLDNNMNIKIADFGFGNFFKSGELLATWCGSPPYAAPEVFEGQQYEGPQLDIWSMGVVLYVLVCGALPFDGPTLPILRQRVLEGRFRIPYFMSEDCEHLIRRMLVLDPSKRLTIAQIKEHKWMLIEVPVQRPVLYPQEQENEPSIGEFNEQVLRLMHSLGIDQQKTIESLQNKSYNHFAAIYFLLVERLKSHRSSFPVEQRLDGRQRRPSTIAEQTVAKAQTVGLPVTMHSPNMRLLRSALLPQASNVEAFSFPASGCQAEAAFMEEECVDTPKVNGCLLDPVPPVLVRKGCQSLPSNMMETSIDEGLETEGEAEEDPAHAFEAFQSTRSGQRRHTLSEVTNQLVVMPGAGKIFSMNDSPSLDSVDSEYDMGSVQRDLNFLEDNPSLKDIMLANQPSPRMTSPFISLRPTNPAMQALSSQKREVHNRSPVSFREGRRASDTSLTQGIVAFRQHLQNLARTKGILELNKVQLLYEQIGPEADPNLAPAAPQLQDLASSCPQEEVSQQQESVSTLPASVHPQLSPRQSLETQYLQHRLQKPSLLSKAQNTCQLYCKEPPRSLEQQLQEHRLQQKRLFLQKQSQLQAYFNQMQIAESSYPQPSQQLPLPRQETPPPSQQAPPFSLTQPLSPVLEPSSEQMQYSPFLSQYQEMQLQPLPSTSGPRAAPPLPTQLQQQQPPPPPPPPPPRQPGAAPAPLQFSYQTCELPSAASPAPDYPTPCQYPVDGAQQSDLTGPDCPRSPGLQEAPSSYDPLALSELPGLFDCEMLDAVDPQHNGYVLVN

| SMILES | IC50 [1] [nM] | IC50 [2] [nM] | IC50 [3] [nM] |
| --- | --- | --- | --- |
| COc1cc(-c2coc3cc(OCCN4CCOCC4)ccc23)cc2c1C(=O)N(CC(F)(F)F)CC2 [Compound 58, 8-methoxy-6-(6-(2-morpholinoethoxy)benzofuran-3-yl)-2-(2,2,2-trifluoroethyl)-3,4-dihydroisoquinolin-1 (2H)-one] | > 10000 | 167 | 391 |
| COc1cc(-c2coc3cc(OCCN4CCCC4)ccc23)cc2c1C(=O)N(CC(F)(F)F)CC2 [Compound 59, 8-methoxy-6-(6-(2-(pyrrolidin-1-yl)ethoxy)benzofuran-3-yl)-2-(2,2,2-trifluoroethyl)-3,4-dihydroisoquinolin-1 (2H)-one] | > 10000 | 77 | 348 |
| COc1cc(-c2coc3cc(OCc4cncn4C)ccc23)cc2c1C(=O)N(CC(F)(F)F)CC2 [Compound 60, 8-methoxy-6-(6-((1-methyl-1H-imidazol-5-yl)methoxy)benzofuran-3-yl)-2-(2,2,2-trifluoroethyl)-3,4-dihydroisoquinolin-1 (2H)-one] | > 10000 | 635 | 421 |
| COc1cc(-c2coc3cc(OCC4CCCN4C)ccc23)cc2c1C(=O)N(CC(F)(F)F)CC2 (stereo not drawn) [Compound 61, 8-methoxy-6-(6-((1-methylpyrrolidin-2-yl)methoxy)benzofuran-3-yl)-2-(2,2,2-trifluoroethyl)-3,4-dihydroisoquinolin-1 (2H)-one] | > 10000 | 147 | 322 |
| COc1cc(-c2coc3cc(OCCN4CCCC4)ccc23)cc(OC(F)F)c1C(=O)NC1CC1 [Compound 62, N-cyclopropyl-2-(difluoromethoxy)-6-methoxy-4-(6-(2-(pyrrolidin-1-yl)ethoxy)benzofuran-3-yl)benzamide] | > 10000 | 76 | 122 |
| O=C1c2c(cc(-c3coc4cc(OCCN5CCCC5)ccc34)cc2OC(F)F)CCN1CC(F)(F)F [Compound 63, 8-(difluoromethoxy)-6-(6-(2-(pyrrolidin-1-yl)ethoxy)benzofuran-3-yl)-2-(2,2,2-trifluoroethyl)-3,4-dihydroisoquinolin-1 (2H)-one] | > 10000 | 67 | 300 |
| COc1cc(-c2coc3cc(OCCN4CCCCC4)ccc23)cc2c1C(=O)N(CC(F)(F)F)CC2 [Compound 64, 8-methoxy-6-(6-(2-(piperidin-1-yl)ethoxy)benzofuran-3-yl)-2-(2,2,2-trifluoroethyl)-3,4-dihydroisoquinolin-1 (2H)-one] | > 10000 | 73 | 415 |
| COc1cc(-c2coc3cc(OCCN4CCCC4)ccc23)cc2c1C(=O)N(CC#N)CC2 [Compound 65, 2-(8-methoxy-1-oxo-6-(6-(2-(pyrrolidin-1-yl)ethoxy)benzofuran-3-yl)-3,4-dihydroisoquinolin-2 (1H)-yl) acetonitrile] | > 10000 | 103 | 313 |
| COc1cc(-c2coc3cc(OCCN4CCCC4)ccc23)cc(OC(F)F)c1C(=O)NCC#N [Compound 66, N-(cyanomethyl)-2-(difluoromethoxy)-6-methoxy-4-(6-(2-(pyrrolidin-1-yl)ethoxy)benzofuran-3-yl)benzamide] | 6690 | 58 | 132 |
| COc1cc(-c2coc3cc(OC(C)CN4CCCC4)ccc23)cc(OC(F)F)c1C(=O)N[C@@H]1C[C@@H]1F (stereo partly drawn) [Compound 68, 2-(difluoromethoxy)-N-((1R,2S)-2-fluorocyclopropyl)-6-methoxy-4-(6-((1-(pyrrolidin-1-yl)propan-2-yl)oxy)benzofuran-3-yl)benzamide] | 8180 | 90 | 139 |

Compounds with a lower IC50 [1], results first:

| IC50 [1] [nM] | IC50 [2] [nM] | IC50 [3] [nM] | SMILES |
| --- | --- | --- | --- |
| 2450 | 23 | 79 | COc1cc(-c2coc3cc(OCCN4CCCC4)ccc23)cc(OC(F)F)c1C(=O)N[C@@H]1C[C@@H]1F [Compound 67, 2-(difluoromethoxy)-N-((1R,2S)-2-fluorocyclopropyl)-6-methoxy-4-(6-(2-(pyrrolidin-1-yl)ethoxy)benzofuran-3-yl)benzamide] |
| 1270 | 41 | 45 | COc1cc(-c2coc3cc(OCCN4CCOCC4)ccc23)cc(OC(F)F)c1C(=O)N[C@@H]1C[C@@H]1F [Compound 69, 2-(difluoromethoxy)-N-((1R,2S)-2-fluorocyclopropyl)-6-methoxy-4-(6-(2-morpholinoethoxy)benzofuran-3-yl)benzamide] |
| 2950 | 14 | 42 | COc1cc(-c2coc3cc(OCCN4CCCCC4)ccc23)cc(OC(F)F)c1C(=O)N[C@@H]1C[C@@H]1F [Compound 70, 2-(difluoromethoxy)-N-((1R,2S)-2-fluorocyclopropyl)-6-methoxy-4-(6-(2-(piperidin-1-yl)ethoxy)benzofuran-3-yl)benzamide] |
| 1380 | 48 | 39 | COc1cc(-c2coc3cc(OCCN4CC[C@@H](F)C4)ccc23)cc(OC(F)F)c1C(=O)N[C@@H]1C[C@@H]1F [Compound 71, 2-(difluoromethoxy)-N-((1R,2S)-2-fluorocyclopropyl)-4-(6-(2-((R)-3-fluoropyrrolidin-1-yl)ethoxy)benzofuran-3-yl)-6-methoxybenzamide] |
| 461 | 6 | 31 | COc1cc(-c2coc3cc(OCCCN4CCCC4)ccc23)cc(OC(F)F)c1C(=O)N[C@@H]1C[C@@H]1F [Compound 72, 2-(difluoromethoxy)-N-((1R,2S)-2-fluorocyclopropyl)-6-methoxy-4-(6-(3-(pyrrolidin-1-yl)propoxy)benzofuran-3-yl)benzamide] |
| 3260 | 24 | 65 | COc1cc(-c2coc3cc(OCCN(C)C)ccc23)cc(OC(F)F)c1C(=O)N[C@@H]1C[C@@H]1F [Compound 73, 2-(difluoromethoxy)-4-(6-(2-(dimethylamino)ethoxy)benzofuran-3-yl)-N-((1R,2S)-2-fluorocyclopropyl)-6-methoxybenzamide] |
| 1130 | 26 | 34 | COc1cc(-c2coc3cc(OCCN4CC[C@H](F)C4)ccc23)cc(OC(F)F)c1C(=O)N[C@@H]1C[C@@H]1F [Compound 74, 2-(difluoromethoxy)-N-((1R,2S)-2-fluorocyclopropyl)-4-(6-(2-((S)-3-fluoropyrrolidin-1-yl)ethoxy)benzofuran-3-yl)-6-methoxybenzamide] |
| 1740 | 16 | 93 | COc1cc(-c2coc3cc(OCCN4CCC4)ccc23)cc(OC(F)F)c1C(=O)N[C@@H]1C[C@@H]1F [Compound 75, 4-(6-(2-(azetidin-1-yl)ethoxy)benzofuran-3-yl)-2-(difluoromethoxy)-N-((1R,2S)-2-fluorocyclopropyl)-6-methoxybenzamide] |
| 1010 | 34 | 34 | COc1cc(-c2coc3cc(OCCN4CCC(C(F)(F)F)C4)ccc23)cc(OC(F)F)c1C(=O)N[C@@H]1C[C@@H]1F (stereo partly drawn) [Compound 76, 2-(difluoromethoxy)-N-((1R,2S)-2-fluorocyclopropyl)-6-methoxy-4-(6-(2-(3-(trifluoromethyl)pyrrolidin-1-yl)ethoxy)benzofuran-3-yl)benzamide] |
